Experimental data reported in patent US9895338B1, “Cobalt-polypyridyl complex for treatment of cancer, a pharmaceutical composition and a kit comprising it” (Macau University of Science and Technology, priority 2016, dated 2018).

Assays:
[1] = system: Taxol-sensitive HCT8 cancer cells; assay: MTT cytotoxicity, taxol-sensitive HCT8; format: cell-based; conditions: 72 h
Procedure: (§1) All prepared cobalt-polypyridyl complexes were dissolved in DMSO at a final concentration of 50 mmol/L and stored at −20° C. before use. Cytotoxicity was assessed by using the 3-(4,5-dimethylthiazol-2-yl)-2,5-diphenyltetrazolium bromide (MTT) (5.0 mg/ml) assay as previously described (Wong, V. K. et al., Cell Death Dis, 2013, 4, e720). Briefly, 4×10^3 cells per well were seeded in 96-well plates before drug treatments. After overnight culture, the cells were then exposed to different concentrations of selected compounds (0.039-100 μmol/L) for 72 h. Cells without drug treatment were used as control. Subsequently, MTT (10 μL) solution was added to each well and incubated at 37° C. for 4 h followed by the addition of 100 μL solubilization buffer (10% SDS in 0.01 mol/L HCl) and overnight incubation. A570 nm was then determined in each well on the next day. The percentage of cell viability was calculated using the following formula: Cell viability (%)=Atreated/Acontrol×100. Data were obtained from three independent experiments.

[2] = system: cisplatin-resistant SGC-7901 gastric cancer cells; assay: MTT cytotoxicity, cisplatin-resistant SGC-7901; format: cell-based; conditions: for IC50: SGC-7901, MTT, 72 h; for Resistant Factor: SGC-7901, cisplatin-resistant over cisplatin-sensitive
Procedure: as §1
(§2) All cells were obtained from the American Type Culture Collection (Rockville, Md., USA) unless otherwise specified. Immortalized wild-type and Atg7-deficient mouse embryonic fibroblasts (MEFs) were provided by Professor Masaaki Komatsu (Juntendo University, School of Medicine, Japan). Taxol-resistant types of A549, MCF-7, HCT-8 cancer cells, cisplatin-resistant SGC7901 cancer cells were purchased from KeyGEN BioTECH, China.

[3] = system: cisplatin-sensitive SGC-7901 gastric cancer cells; assay: MTT cytotoxicity, cisplatin-sensitive SGC-7901; format: cell-based; conditions: SGC-7901, MTT, 72 h
Procedure: as §1

[4] = system: LO2 (normal human hepatocytes); assay: MTT cytotoxicity assay, LO2; format: cell-based; conditions: 72 h
Procedure: as §1, with “experiments. Cells include HeLa cells (cervical cancer), MCF-7 (breast cancer), H1299, H1975, A549 and LLC-1 (lung cancer), HepG2 and Hep3B (liver cancer) and LO2 (normal human hepatocytes).” for “experiments.”

[5] = system: Taxol-resistant MCF-7 cancer cells; assay: MTT cytotoxicity, taxol-resistant MCF-7; format: cell-based; conditions: for IC50: MCF-7, MTT, 72 h; for Resistant Factor: MCF-7, IC50 taxol-resistant over IC50 taxol-sensitive
Procedure: as §1, §2

MCF-7 (breast cancer) = assay: MTT cytotoxicity assay, MCF-7; format: cell-based; conditions: MCF-7, MTT, 72 h
Procedure: as §1, with “experiments. Cells include HeLa cells (cervical cancer), MCF-7 (breast cancer), H1299, H1975, A549 and LLC-1 (lung cancer), HepG2 and Hep3B (liver cancer) and LO2 (normal human hepatocytes).” for “experiments.”

[6] = system: Taxol-resistant HCT8 cancer cells; assay: MTT cytotoxicity, taxol-resistant HCT8; format: cell-based; conditions: for IC50: HCT8, MTT, 72 h; for Resistant Factor: HCT8, IC50 taxol-resistant over IC50 taxol-sensitive
Procedure: as §1, §2

[7] = system: OV2008/C13 cervical cancer cells; assay: MTT cytotoxicity, OV2008/C13 (cisplatin-resistant); format: cell-based; conditions: for Resistant Factor: OV2008/C13 over OV2008
Procedure: as §1
(§3) Cisplatin-sensitive or -resistant A2780, OV2008 and C13 cancer cells were provided by Prof. Benjamin Tsang (Department of Obstetrics and Gynecology and Department of Cellular and Molecular Medicine, University of Ottawa, Canada). HCT116 p53^+/+ and p53^−/− isogenic human colon cancer cells were provided by Professor Bert Vogelstein (Ludwig Center at Johns Hopkins, Howard Hughes Medical Institute, USA). All media were supplemented with 10% fetal bovine serum and the antibiotics penicillin (50 U/ml) and streptomycin (50 μg/ml; Invitrogen, Paisley, Scotland, UK). All cell cultures were incubated at 37° C. in a 5% humidified CO2 incubator.

[8] = system: cisplatin-resistant A2780 ovarian cancer cells; assay: MTT cytotoxicity, cisplatin-resistant A2780; format: cell-based; conditions: for IC50: A2780, MTT, 72 h; for Resistant Factor: A2780, cisplatin-resistant over cisplatin-sensitive
Procedure: as §1, §3

H1975 (lung cancer) = assay: MTT cytotoxicity assay, H1975; format: cell-based; conditions: 72 h
Procedure: as §1, with “experiments. Cells include HeLa cells (cervical cancer), MCF-7 (breast cancer), H1299, H1975, A549 and LLC-1 (lung cancer), HepG2 and Hep3B (liver cancer) and LO2 (normal human hepatocytes).” for “experiments.”

LLC-1 (lung cancer) = assay: MTT cytotoxicity assay, LLC-1; format: cell-based; conditions: LLC-1, MTT, 72 h
Procedure: as §1, with “experiments. Cells include HeLa cells (cervical cancer), MCF-7 (breast cancer), H1299, H1975, A549 and LLC-1 (lung cancer), HepG2 and Hep3B (liver cancer) and LO2 (normal human hepatocytes).” for “experiments.”

H1299 (lung cancer) = assay: MTT cytotoxicity assay, H1299; format: cell-based, human; conditions: 72 h
Procedure: as §1, with “experiments. Cells include HeLa cells (cervical cancer), MCF-7 (breast cancer), H1299, H1975, A549 and LLC-1 (lung cancer), HepG2 and Hep3B (liver cancer) and LO2 (normal human hepatocytes).” for “experiments.”

Hep 3B (liver cancer) = assay: MTT cytotoxicity assay, Hep3B; format: cell-based; conditions: 72 h
Procedure: as §1, with “experiments. Cells include HeLa cells (cervical cancer), MCF-7 (breast cancer), H1299, H1975, A549 and LLC-1 (lung cancer), HepG2 and Hep3B (liver cancer) and LO2 (normal human hepatocytes).” for “experiments.”

HepG2 (liver cancer) = assay: MTT cytotoxicity assay, HepG2; format: cell-based; conditions: 72 h
Procedure: as §1, with “experiments. Cells include HeLa cells (cervical cancer), MCF-7 (breast cancer), H1299, H1975, A549 and LLC-1 (lung cancer), HepG2 and Hep3B (liver cancer) and LO2 (normal human hepatocytes).” for “experiments.”

[9] = system: Taxol-sensitive MCF-7 cancer cells; assay: MTT cytotoxicity, taxol-sensitive MCF-7; format: cell-based; conditions: MCF-7, MTT, 72 h
Procedure: as §1

A549 (lung cancer) = assay: MTT cytotoxicity assay, A549; format: cell-based; conditions: 72 h
Procedure: as §1, with “experiments. Cells include HeLa cells (cervical cancer), MCF-7 (breast cancer), H1299, H1975, A549 and LLC-1 (lung cancer), HepG2 and Hep3B (liver cancer) and LO2 (normal human hepatocytes).” for “experiments.”

[10] = system: HeLa cells (cervical cancer); assay: MTT cytotoxicity assay, HeLa; format: cell-based; conditions: 72 h
Procedure: as §1, with “experiments. Cells include HeLa cells (cervical cancer), MCF-7 (breast cancer), H1299, H1975, A549 and LLC-1 (lung cancer), HepG2 and Hep3B (liver cancer) and LO2 (normal human hepatocytes).” for “experiments.”

[11] = system: cancer cells from different origins; assay: MTT cytotoxicity assay, summary over cancer cell lines; format: cell-based; conditions: range over the cancer cell lines of Table 1; read-out: mean IC50 values ranging (anti-cancer potency)
Procedure: as §1, with “experiments. Cells include HeLa cells (cervical cancer), MCF-7 (breast cancer), H1299, H1975, A549 and LLC-1 (lung cancer), HepG2 and Hep3B (liver cancer) and LO2 (normal human hepatocytes).” for “experiments.”
By contrast, the cytotoxicity was lower in LO2 normal human hepatocytes. […]

[12] = system: cisplatin-sensitive A2780 ovarian cancer cells; assay: MTT cytotoxicity, cisplatin-sensitive A2780; format: cell-based; conditions: 72 h
Procedure: as §1, §3

[13] = system: OV2008 cervical cancer cells; assay: MTT cytotoxicity, OV2008 (cisplatin-sensitive); format: cell-based; conditions: 72 h
Procedure: as §1, §3

[14] = system: HCT116 p53^−/− colon cancer cells; assay: MTT cytotoxicity, HCT116 p53-/-; format: cell-based, human
Procedure: as §1, §3

[15] = system: HCT116 p53^+/+ colon cancer cells; assay: MTT cytotoxicity, HCT116 p53+/+; format: cell-based, human; conditions: 72 h
Procedure: as §1, §3

[16] = system: Taxol-resistant A549 cancer cells; assay: MTT cytotoxicity, taxol-resistant A549; format: cell-based
Procedure: as §1, §2

[17] = system: Taxol-sensitive A549 cancer cells; assay: MTT cytotoxicity, taxol-sensitive A549; format: cell-based; conditions: 72 h
Procedure: as §1

[18] = Body weight in mouse lung cancer xenograft model; format: in vivo; conditions: IP 40 mg/kg/day, tumor-bearing mice
Description: The mice were maintained under specific pathogen-free condition in a 12-h light-dark cycle. Experimental conditions were followed in accordance to the “Institutional AnimalCare and User Committee guidelines” of the Macau University of Science and Technology. Xenograft mouse model was constructed as previously described (Wong, V. K. et al., Oncotarget, 2016, 7, 9907-9924). LLC-1 Lewis lung cancer cells (1×10^6 cells) were subcutaneously injected in the right dorsal region of the mice. After tumors grew to about 100 mm^3, the mice were randomly divided into 3 groups: 1) the control group, 2) 40 mg/kg cobalt-polypyridyl complex of Formula (IV) group, and 3) 40 mg/kg cobalt-polypyridyl complex of Formula (IV) as chloride, also referenced as (IV)-Cl (water soluble form) group. The cobalt-polypyridyl complex of Formula (IV) was dissolved in 100 μL buffer (PEG400:EtOH:ddH2O=6:1:3), whereas (IV)-Cl (water soluble form) was dissolved in ddH2O. The complexes were then intraperitoneal injected in mice every day. The body weight of each mouse was recorded with the tumor volume determined by Vernier caliper using the formula of L×W^2×0.52, where L is the longest diameter of tumor and W is the shortest diameter of tumor. Mice with tumor implants were sacrificed after 10 days when the tumor size of vehicle control group reached above 1000 mm^3 due to animal ethical issue.

Row | Structure (SMILES) | IC50 [1] [µM] | IC50 [2] [µM] | Resistant Factor [2] | IC50 [3] [µM] | IC50 [4] [µM] | IC50 [5] [µM] | Resistant Factor [5] | IC50 (MCF-7 (breast cancer)) [µM] | IC50 [6] [µM] | Resistant Factor [6] | Resistant Factor [7] | IC50 [8] [µM] | Resistant Factor [8] | IC50 (H1975 (lung cancer)) [µM] | IC50 (LLC-1 (lung cancer)) [µM] | IC50 (H1299 (lung cancer)) [µM] | IC50 (Hep 3B (liver cancer)) [µM] | IC50 (HepG2 (liver cancer)) [µM] | IC50 [9] [µM] | IC50 (A549 (lung cancer)) [µM] | other results
1 | CCCCCCCCCc1ccnc(-c2cc(CCCCCCCCC)ccn2)c1.CCCCCCCCCc1ccnc(-c2cc(CCCCCCCCC)ccn2)c1.CCCCCCCCCc1ccnc(-c2cc(CCCCCCCCC)ccn2)c1.F[P-](F)(F)(F)(F)F.F[P-](F)(F)(F)(F)F.F[P-](F)(F)(F)(F)F.[Co+3] [complex (VIII), [Co^III(4,4′-(C9H19)2-Bpy)3](PF6)3] | 56.4 | 35.9 | 0.99 | 36.3 | 40.2 | 11.1 | 0.39 | 37.4 | 41.1 | 0.73 | 1.87 | 29.1 | 0.96 | 24.2 | 10.4 | 26.7 | 54.1 | 26 | 28.5 | 82.8 | IC50 [10]: 21.3 µM; IC50 [11]: 10.4 to 82.8 µM; IC50 [12]: 30.2 µM; IC50 [13]: 49.4 µM
2 | F[P-](F)(F)(F)(F)F.F[P-](F)(F)(F)(F)F.F[P-](F)(F)(F)(F)F.[Co+3].c1ccc(-c2ccccn2)nc1.c1ccc(-c2ccccn2)nc1.c1ccc(-c2ccccn2)nc1 [complex (VI), [Co^III(N^N)3](PF6)3] | 18.5 | 41.7 | 1.01 | 41.1 | 43.7 | 5.01 | 0.62 | 10.1 | 10.2 | 0.55 | 0.88 | 54.1 | 0.98 | 21 | 29.2 | 14.9 | 13.8 | 22.7 | 8.02 | 37.2 | Resistant Factor ([14]; HCT116 p53^−/− over HCT116 p53^+/+): 1.00; IC50 ([14]; MTT, 72 h): 45 µM; IC50 ([7]; OV2008/C13, MTT, 72 h): 37.4 µM; IC50 [15]: 45.1 µM; IC50 ([16]; A549, MTT, 72 h): 11.1 µM; Resistant Factor ([16]; A549, IC50 taxol-resistant over IC50 taxol-sensitive): 0.21; IC50 [17]: 51.7 µM; IC50 [10]: 35.9 µM; IC50 [12]: 55 µM; IC50 [13]: 42.5 µM
3 | Cc1ccnc(-c2cc(C)ccn2)c1.Cc1ccnc(-c2cc(C)ccn2)c1.Cc1ccnc(-c2cc(C)ccn2)c1.[Cl-].[Cl-].[Cl-].[Co+3] [complex (IV)-Cl] | – | – | – | – | – | – | – | – | – | – | – | – | – | – | – | – | – | – | – | – | reduction in body weight [18]: no significant reduction in body weight
